Experimental data taken from patent publication US20070082880A1 (priority 2005, published 2007).

Biological target: T1, human PKCθ full length enzyme (Homo sapiens, UniProt Q04759)
T1 construct: human PKCθ full length enzyme (Panvera Catalog No. P2996); purchased Panvera P2996
Experiment: PKCθ IMAP Assay
Assay type: biochemical
Conditions: average value when one or more samples were tested; ATP 6 uM, PKCθ 1 nM
Method in brief: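 Full-length human PKCθ (1 nM final) with 6 uM ATP and 100 nM 5FAM-labelled peptide, 5% DMSO, 3.0 mM DTT in reaction buffer. 25 min at room temperature; IMAP bead binding 20 min, fluorescence polarization read. Compounds 2:1 serially diluted; no-ATP and no-enzyme wells as controls.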

T1 sequence (Q04759 whole entry): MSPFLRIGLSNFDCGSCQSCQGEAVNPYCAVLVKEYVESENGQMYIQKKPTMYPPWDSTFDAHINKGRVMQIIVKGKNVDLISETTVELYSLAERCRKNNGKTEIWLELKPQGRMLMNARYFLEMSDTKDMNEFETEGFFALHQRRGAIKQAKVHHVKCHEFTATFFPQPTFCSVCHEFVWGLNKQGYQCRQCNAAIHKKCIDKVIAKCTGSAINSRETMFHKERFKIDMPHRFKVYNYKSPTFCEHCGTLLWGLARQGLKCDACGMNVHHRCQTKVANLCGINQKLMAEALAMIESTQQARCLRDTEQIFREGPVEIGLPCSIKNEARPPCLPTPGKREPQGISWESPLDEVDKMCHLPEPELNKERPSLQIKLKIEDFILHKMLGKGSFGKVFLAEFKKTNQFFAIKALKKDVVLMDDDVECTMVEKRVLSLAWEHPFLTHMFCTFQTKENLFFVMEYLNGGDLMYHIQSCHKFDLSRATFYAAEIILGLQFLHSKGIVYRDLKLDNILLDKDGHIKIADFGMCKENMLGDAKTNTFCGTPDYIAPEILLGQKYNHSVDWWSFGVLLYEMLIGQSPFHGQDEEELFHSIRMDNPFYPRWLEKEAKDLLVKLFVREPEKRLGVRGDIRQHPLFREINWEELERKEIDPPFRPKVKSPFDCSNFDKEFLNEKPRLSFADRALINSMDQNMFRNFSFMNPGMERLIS

IC50 | Structure (SMILES)
1010 nM | CS(=O)(=O)Nc1ccccc1-c1cc2c(Nc3ccc4[nH]ccc4c3)c(C#N)cnc2s1 [Compound 370, N-{2-[5-cyano-4-(1H-indol-5-ylamino)thieno[2,3-b]pyridin-2-yl]phenyl}methanesulfonamide]
182 nM | Cc1c(Nc2c(C#N)cnc3sc(-c4ccccc4NS(C)(=O)=O)cc23)ccc2[nH]ccc12 [Compound 371, N-(2-{5-cyano-4-[(4-methyl-1H-indol-5-yl)amino]thieno[2,3-b]pyridin-2-yl}phenyl)methanesulfonamide]
627 nM | Cc1c(Nc2c(C#N)cnc3sc(-c4ccc(NS(C)(=O)=O)cc4)c(C)c23)ccc2[nH]ccc12 [Compound 372, N-(4-{5-cyano-3-methyl-4-[(4-methyl-1H-indol-5-yl)amino]thieno[2,3-b]pyridin-2-yl}phenyl)methanesulfonamide]
57 nM | Cc1c(Nc2c(C#N)cnc3sc(-c4cc5ccccc5s4)cc23)ccc2[nH]ccc12 [Compound 373, 2-(1-benzothien-2-yl)-4-[(4-methyl-1H-indol-5-yl)amino]thieno[2,3-b]pyridine-5-carbonitrile]
140 nM | Cc1c(Nc2c(C#N)cnc3sc(-c4cc5cc(C=O)ccc5s4)cc23)ccc2[nH]ccc12 [Compound 374, 2-(5-formyl-1-benzothien-2-yl)-4-[(4-methyl-1H-indol-5-yl)amino]thieno[2,3-b]pyridine-5-carbonitrile]
41 nM | Cc1c(Nc2c(C#N)cnc3sc(-c4cccc(S(C)(=O)=O)c4)cc23)ccc2[nH]ccc12 [Compound 375, 4-[(4-methyl-1H-indol-5-yl)amino]-2-[3-(methylsulfonyl)phenyl]thieno[2,3-b]pyridine-5-carbonitrile]
26 nM | Cc1c(Nc2c(C#N)cnc3sc(-c4ccc(S(C)(=O)=O)cc4)cc23)ccc2[nH]ccc12 [Compound 376, 4-[(4-methyl-1H-indol-5-yl)amino]-2-[4-(methylsulfonyl)phenyl]thieno[2,3-b]pyridine-5-carbonitrile]
141 nM | Cc1c(Nc2c(C#N)cnc3sc(-c4cccc(Br)c4)cc23)ccc2[nH]ccc12 [Compound 377, 2-(3-bromophenyl)-4-[(4-methyl-1H-indol-5-yl)amino]thieno[2,3-b]pyridine-5-carbonitrile]
98 nM | Cc1cc(C=O)cc(-c2cc3c(Nc4ccc5[nH]ccc5c4C)c(C#N)cnc3s2)c1 [Compound 378, 2-(3-formyl-5-methylphenyl)-4-[(4-methyl-1H-indol-5-yl)amino]thieno[2,3-b]pyridine-5-carbonitrile]
169 nM | CCCOc1c(C=O)cc(C)cc1-c1cc2c(Nc3ccc4[nH]ccc4c3C)c(C#N)cnc2s1 [Compound 379, 2-(3-formyl-5-methyl-2-propoxyphenyl)-4-[(4-methyl-1H-indol-5-yl)amino]thieno[2,3-b]pyridine-5-carbonitrile]
16 nM | Cc1c(Nc2c(C#N)cnc3sc(-c4cnc5ccccc5c4)cc23)ccc2[nH]ccc12 [Compound 380, 4-[(4-methyl-1H-indol-5-yl)amino]-2-quinolin-3-ylthieno[2,3-b]pyridine-5-carbonitrile]
570 nM | CCCOc1ccccc1-c1cc2c(Nc3ccc4[nH]ccc4c3C)c(C#N)cnc2s1 [Compound 382, 4-[(4-methyl-1H-indol-5-yl)amino]-2-(2-propoxyphenyl)thieno[2,3-b]pyridine-5-carbonitrile]
64 nM | Cc1c(Nc2c(C#N)cnc3sc(-c4ccccc4OCCCN(C)C)cc23)ccc2[nH]ccc12 [Compound 383, 2-{2-[3-(dimethylamino)propoxy]phenyl}-4-[(4-methyl-1H-indol-5-yl)amino]thieno[2,3-b]pyridine-5-carbonitrile]
93 nM | CCCOc1ccc(CN(C)C)cc1-c1cc2c(Nc3ccc4[nH]ccc4c3C)c(C#N)cnc2s1 [Compound 384, 2-{5-[(dimethylamino)methyl]-2-propoxyphenyl}-4-[(4-methyl-1H-indol-5-yl)amino]thieno[2,3-b]pyridine-5-carbonitrile]
> 30000 nM | CCOc1ccc2cc(-c3cc4c(Nc5ccc6[nH]ccc6c5C)c(C#N)cnc4s3)ccc2c1 [Compound 385, 2-(6-ethoxy-2-naphthyl)-4-[(4-methyl-1H-indol-5-yl)amino]thieno[2,3-b]pyridine-5-carbonitrile]
2 nM | Cc1c(Nc2c(C#N)cnc3sc(-c4cncc(C=O)c4)cc23)ccc2[nH]ccc12 [Compound 387, 2-(5-formylpyridin-3-yl)-4-[(4-methyl-1H-indol-5-yl)amino]thieno[2,3-b]pyridin-5-carbonitrile]
118 nM | Cc1c(Nc2c(C#N)cnc3sc(-c4ccccc4F)cc23)ccc2[nH]ccc12 [Compound 388, 2-(2-fluorophenyl)-4-[(4-methyl-1H-indol-5-yl)amino]thieno[2,3-b]pyridine-5-carbonitrile]
18 nM | Cc1c(Nc2c(C#N)cnc3sc(-c4cc(C=O)ccc4F)cc23)ccc2[nH]ccc12 [Compound 389, 2-(2-fluoro-5-formylphenyl)-4-[(4-methyl-1H-indol-5-yl)amino]thieno[2,3-b]pyridine-5-carbonitrile]
43 nM | Cc1c(Nc2c(C#N)cnc3sc(-c4cccc(N(C)CCN(C)C)c4)cc23)ccc2[nH]ccc12 [Compound 390, 2-(3-{[2-(dimethylamino)ethyl](methyl)amino}phenyl)-4-[(4-methyl-1H-indol-5-yl)amino]thieno[2,3-b]pyridine-5-carbonitrile]
86 nM | Cc1c(Nc2c(C#N)cnc3sc(-c4ccc(N(C)C)nc4)cc23)ccc2[nH]ccc12 [Compound 391, 2-[6-(dimethylamino)pyridin-3-yl]-4-[(4-methyl-1H-indol-5-yl)amino]thieno[2,3-b]pyridine-5-carbonitrile]
177 nM | COCc1ccccc1-c1cc2c(Nc3ccc4[nH]ccc4c3C)c(C#N)cnc2s1 [Compound 392, 2-[2-(methoxymethyl)phenyl]-4-[(4-methyl-1H-indol-5-yl)amino]thieno[2,3-b]pyridine-5-carbonitrile]
10 nM | Cc1c(Nc2c(C#N)cnc3sc(-c4cccc(NCCN(C)C)c4)cc23)ccc2[nH]ccc12 [Compound 394, 2-(3-{[2-(dimethylamino)ethyl]amino}phenyl)-4-[(4-methyl-1H-indol-5-yl)amino]thieno[2,3-b]pyridine-5-carbonitrile]
281 nM | Cc1c(Nc2c(C#N)cnc3sc(-c4cnc(N5CCCCC5)nc4)cc23)ccc2[nH]ccc12 [Compound 395, 4-[(4-methyl-1H-indol-5-yl)amino]-2-(2-piperidin-1-ylpyrimidin-5-yl)thieno[2,3-b]pyridine-5-carbonitrile]
156 nM | Cc1c(Nc2c(C#N)cnc3sc(-c4cnc(N5CCCC5)nc4)cc23)ccc2[nH]ccc12 [Compound 396, 4-[(4-methyl-1H-indol-5-yl)amino]-2-(2-pyrrolidin-1-ylpyrimidin-5-yl)thieno[2,3-b]pyridine-5-carbonitrile]
292 nM | Cc1c(Nc2c(C#N)cnc3sc(-c4ccc(N5CCCCC5)nc4)cc23)ccc2[nH]ccc12 [Compound 397, 4-[(4-methyl-1H-indol-5-yl)amino]-2-(6-piperidin-1-ylpyridin-3-yl)thieno[2,3-b]pyridine-5-carbonitrile]

Structure (SMILES) | IC50
CCCCOc1ccccc1-c1cc2c(Nc3ccc4[nH]ccc4c3C)c(C#N)cnc2s1 [Compound 381, 2-(2-butoxyphenyl)-4-[(4-methyl-1H-indol-5-yl)amino]thieno[2,3-b]pyridine-5-carbonitrile] | 1980 nM
